Results reported in article PMC11597207, “Synthesis and Anti-Inflammatory and Analgesic Potentials of Ethyl 2-(2,5-Dioxo-1-Phenylpyrrolidin-3-yl)-2-Methylpropanoate” (Pharmaceuticals, 2024).
Several values for one entry are separate records, joined by “and”; a condition that tells them apart may be missing. Identical values can stand only once.

How the values were obtained:
COX-2 = molecular target: T1, COX-2 (Homo sapiens, UniProt P35354); test: COX-2 inhibitory assay; format: biochemical
T1 construct: purchased Cayman Chemical Batch No.: G5234
T1 sequence (P35354 18-604): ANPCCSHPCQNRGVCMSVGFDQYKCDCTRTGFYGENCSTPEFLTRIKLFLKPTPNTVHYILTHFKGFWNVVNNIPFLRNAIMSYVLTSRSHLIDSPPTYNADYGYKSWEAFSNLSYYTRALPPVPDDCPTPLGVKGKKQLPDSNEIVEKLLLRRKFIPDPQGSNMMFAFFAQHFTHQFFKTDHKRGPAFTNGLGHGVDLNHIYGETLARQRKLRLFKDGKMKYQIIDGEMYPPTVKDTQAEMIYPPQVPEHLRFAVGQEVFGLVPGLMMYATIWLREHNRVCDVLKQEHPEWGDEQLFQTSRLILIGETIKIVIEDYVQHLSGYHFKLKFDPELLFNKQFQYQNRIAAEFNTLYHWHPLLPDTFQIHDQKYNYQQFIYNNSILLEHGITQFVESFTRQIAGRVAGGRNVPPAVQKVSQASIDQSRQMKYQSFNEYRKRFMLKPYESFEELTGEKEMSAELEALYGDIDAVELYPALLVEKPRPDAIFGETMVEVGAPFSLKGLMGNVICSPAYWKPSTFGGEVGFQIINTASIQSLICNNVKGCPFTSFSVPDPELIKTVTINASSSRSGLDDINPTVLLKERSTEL
Protocol: The inhibitory potential of synthesized MAK01 was assessed using the COX-2 inhibitory protocol. The process started with the preparation of a COX-2 enzyme solution with a concentration of 300 U per ml. The activation of the enzymes was achieved by taking and mixing 10 μL and 50 μL of the COX-2 enzyme solution and a co-factor solution, respectively. Once mixed, this solution needed to be chilled. The chilling process was carried out at 4 °C in an ice bath. The duration for this cooling phase was set at five to six minutes. […] It was made up of 0.1 M Tris buffer with a pH of 8.0, 1 mM of hematin, 0.9 mM of glutathione, and 0.24 mM of TMPD in a phosphate buffer. Following the initial steps, a test sample was prepared. The volume of this sample was fixed at 20 μL. The 20 μL sample was mixed with 60 μL COX-2 solution. After combining them, the sample and enzyme solution were kept at ambient temperature. The solution was allowed to rest for a duration from five to ten minutes. To start the reaction, 20 μL of 30 mM arachidonic acid was incorporated. Upon adding the acid, the solution was subjected to an incubation period. This period lasted for 15 min at a temperature of 37 °C. Post incubation, HCl was added to stop the reaction. The absorbance of this final solution was then measured. This was carried out using a UV–visible spectrophotometer at a specific 570 nm wavelength. Similarly, the above procedure was used for all the other concentrations of the test sample. The COX-2 enzyme inhibition was calculated as per the below equation. […] Using the below formula, the percent inhibition of each sample was calculated. % Inhibition=Abs. test sample−Abs. background/Abs. solvent blank−Abs. background×100
Using established protocols, the inhibitory potency of MAK01 against both COX-1 and COX-2 enzymes was assessed. This evaluation allowed for the determination of the selectivity of these new compounds. The IC50 values for both COX-1 and COX-2 were then used to calculate the selectivity index of the compound.

mice = test: Hot plate antinociceptive test; format: in vivo
[1] = Solubility observation of the isolated compound; format: physicochemical

**Q.** Which IC50 (COX-2) does the source give for `CCOC(=O)C(C)(C)C1CC(=O)N(c2ccccc2)C1=O` (stereo not shown) [MAK01, ethyl 2-(2,5-dioxo-1-phenylpyrrolidin-3-yl)-2-methylpropanoate] here?
**A.** 449 µM

**Q.** What about the COX-2 percent inhibition (COX-2; 62.5 μg/mL) of the same compound?
**A.** 40%

**Q.** And the inhibition at 62.5 µg/mL (COX-2; 62.5 μg/mL, read-out: COX-2 percent inhibition)?
**A.** 40.1%

**Q.** And the COX-2 percent inhibition (COX-2; 125 μg/mL)?
**A.** 49%

**Q.** And the inhibition at 125 µg/mL (COX-2; 125 μg/mL, read-out: COX-2 percent inhibition)?
**A.** 49.4%

**Q.** What about the COX-2 percent inhibition (COX-2; 250 μg/mL) of the same compound?
**A.** 59%

**Q.** What about the inhibition at 250 µg/mL (COX-2; 250 μg/mL, read-out: COX-2 percent inhibition) of the same compound?
**A.** 58.9%

**Q.** And the COX-2 percent inhibition (COX-2; 500 μg/mL)?
**A.** 68%

**Q.** What about the inhibition at 500 µg/mL (COX-2; 500 μg/mL, read-out: COX-2 percent inhibition) of the same compound?
**A.** 67.8%

**Q.** And the COX-2 percent inhibition (COX-2; 1000 μg/mL)?
**A.** 79%

**Q.** What about the inhibition at 1000 µg/mL (COX-2; 1000 μg/mL, read-out: COX-2 percent inhibition) of the same compound?
**A.** 78.7%

**Q.** And the “Selectivity for COX-2 compared to COX-1” value (COX-2; from IC50 values of COX-1 and COX-2)?
**A.** 3 fold

**Q.** What about the “Latency Time (Seconds) on Hot Plate” value (mice; dose 50 mg/kg, 30 min) of the same compound?
**A.** 10.32 ± 0.82 s

**Q.** And the “Latency Time (Seconds) on Hot Plate” value (mice; dose 50 mg/kg, 60 min)?
**A.** 9.96 ± 0.16 s

**Q.** And the “Latency Time (Seconds) on Hot Plate” value (mice; dose 50 mg/kg, 90 min)?
**A.** 9.63 ± 0.26 s

**Q.** What about the “Latency Time (Seconds) on Hot Plate” value (mice; dose 50 mg/kg, 120 min) of the same compound?
**A.** 9.49 ± 0.25 s

**Q.** And the “Latency Time (Seconds) on Hot Plate” value (mice; dose 50 mg/kg, 150 min)?
**A.** 9.16 ± 0.81 s

**Q.** And the “Latency Time (Seconds) on Hot Plate” value (mice; dose 100 mg/kg, 30 min)?
**A.** 12.16 ± 0.51 Seconds and 12.16 ± 0.51 ^ns Seconds

**Q.** What about the “Latency Time (Seconds) on Hot Plate” value (mice; dose 100 mg/kg, 60 min) of the same compound?
**A.** 11.92 ± 0.71 s

**Q.** And the “Latency Time (Seconds) on Hot Plate” value (mice; dose 100 mg/kg, 90 min)?
**A.** 11.76 ± 0.87 ^ns Seconds

**Q.** And the “Latency Time (Seconds) on Hot Plate” value (mice; dose 100 mg/kg, 120 min)?
**A.** 11.14 ± 0.91 ^ns Seconds

**Q.** And the “Latency Time (Seconds) on Hot Plate” value (mice; dose 100 mg/kg, 150 min)?
**A.** 10.96 ± 0.74 s

**Q.** What about the “Latency Time (Seconds) on Hot Plate” value (mice; dose 150 mg/kg, 30 min) of the same compound?
**A.** 12.93 ± 0.45 Seconds and 12.93 ± 0.45 ^ns Seconds

**Q.** What about the “Latency Time (Seconds) on Hot Plate” value (mice; dose 150 mg/kg, 60 min) of the same compound?
**A.** 12.85 ± 0.84 ^ns Seconds

**Q.** And the “Latency Time (Seconds) on Hot Plate” value (mice; dose 150 mg/kg, 90 min)?
**A.** 12.42 ± 0.36 ^ns Seconds

**Q.** And the “Latency Time (Seconds) on Hot Plate” value (mice; dose 150 mg/kg, 120 min)?
**A.** 11.98 ± 0.74 ^ns Seconds

**Q.** What about the “Latency Time (Seconds) on Hot Plate” value (mice; dose 150 mg/kg, 150 min) of the same compound?
**A.** 11.76 ± 0.41 ^ns Seconds

**Q.** What about the “Solubility in organic solvents” value [1] of the same compound?
**A.** soluble in polar organic solvents
